# Data from patent publication US20190328687A1, “Antibacterial Compounds” (priority 2014, published 2019).
# Where two headings read alike, the source gives them in different places. Peptide text beside a SMILES is read from it. * marks the point of attachment. βNA = c1ccc2cc(N*)ccc2c1
# Experiments:
# Salmonella typhimurium = settings: cited from earlier work
# E. coli 7KOΔtolC = assay: Cell sensitivity assay (growth, OD600)
# Procedure: (§1) Overnight cultures of E. coli 7KO or 7KOΔtolC strains are used to inoculate fresh aliquots of LB media which are then incubated at 30° C., 200 rpm for 2.5 h. 40 μL aliquots of each culture are subsequently added to 40 μL of LB media containing 2× the desired final niclosamide concentration (i.e., resulting in a final 2-fold dilution series from 5 μM down to 20 nM) or a 0 μM control in a 384-well microplate. The plate is incubated at 30° C., 200 rpm for 4 h. Culture turbidity is monitored by optical density at 600 nm in order to calculate percentage growth relative to the 0 μM control for each strain. Data are the mean of at least two independent experiments±SEM.
# Overnight cultures of E. coli 7KOΔtolC are used to inoculate fresh aliquots of LB media which are incubated at 30° C., 200 rpm for 2.5 h. […] Culture turbidity is monitored by optical density at 600 nm in order to calculate percentage growth relative to the 0 μM control for each strain. […]
# This procedure applies to all experiments yielding growth curves for Gram negative bacterial strains generated in the presence of niclosamide or 2-chloro-4-nitroaniline, unless noted otherwise below or in the individual Figure Descriptions. […] Culture turbidity is monitored by optical density at 600 nm (OD600) 4 h post-challenge. […]
# [1] = system: E. coli 7KOΔtolC strains over-expressing nitroreductase candidates from plasmid pUCX; assay: Cell sensitivity assay, nitroreductase over-expressing strains; type: cell-based; settings: for IC50: Escherichia coli
# E. coli 6KO = assay: Toxicity to E. coli host strain; type: cell-based; settings: even if not over-expressing an active nitroreductase
# Excerpt: Without wishing to be bound by theory, the applicants hypothesise that a key difference between the niclosamide-sensitive SOS-R2 and niclosamide-resistant 6KO strains is that the former carry a deletion of the tolC gene, which encodes an efflux pump capable of exporting numerous xenobiotic and other compounds directly across both cell membranes of Gram negative bacterial cells.
# [2] = system: Mycobacterium tuberculosis; settings: cited from earlier work
# M. tuberculosis = settings: cited from earlier work
# [3] = system: quorum sensing system in Pseudomonas aeruginosa; settings: among FDA-approved drugs tested; cited from earlier work
# [4] = system: methicillin resistant Staphylococcus aureus (MRSA; ATCC43300); assay: Heatmap growth inhibition assay, MRSA; settings: single agent
# E. coli 7KO = assay: Cell sensitivity assay (growth, OD600)
# Procedure: as §1
# Overnight cultures of E. coli 7KO are used to inoculate fresh aliquots of LB media which are then incubated at 30° C., 200 rpm for 2.5 h. 40 μL aliquots of each culture are subsequently added to 40 μL of LB media containing 2× the desired final niclosamide concentration (i.e., resulting in a final 2-fold dilution series from 10 μM down to 160 nM) or a 0 μM control, as well as either 0 μM, 25 μM or 50 μM PaβN in a 384-well microplate. An overnight culture of 7KOΔtolC is treated in the same manner, but without addition of PaβN. […] Culture turbidity is monitored by optical density at 600 nm in order to calculate percentage growth relative to the 0 μM niclosamide control for each series. […]
# [5] = system: Staphylococcus aureus ATCC 43300 (MRSA); assay: Growth inhibition of Gram positive bacteria: IC50 measurements; settings: ATCC43300|MRSA, 4 h, read-out: IC50 against Staphylococcus aureus ATCC 43300 (MRSA)
# Procedure: (§2) Data are the mean of two independent replicates (using duplicate technical replicates for each independent experiment) and error bars indicate standard error of the mean.
# (§3) Data are the mean of two technical replicates.
# (§4) 15 mL tubes containing 2 mL tryptic soy broth (TSB) were inoculated with the Gram positive bacterial strains Staphylococcus aureus ATCC 43300 (MRSA), Bacillus thuringiensis P.1.IPS-80 serovar israelensis, or Listeria welshimeri ATCC 35897. Strains were incubated overnight at 37° C. with shaking at 200 rpm. The following day, the overnight cultures were diluted in fresh TSB to give an OD600 of approximately 0.3. Duplicate 40 μL aliquots of this were then added to individual wells of a sterile 384 well plate, containing 40 μL TSB medium supplemented with serial dilutions of 2× niclosamide or nitazoxanide, including 0 μM controls. Culture turbidity was monitored by optical density at 600 nm at 4 h post-challenge. Percentage growth inhibition values were calculated by comparison of the niclosamide- or nitazoxanide-challenged cells with the unchallenged control for each strain, after subtracting the initial absorbance values (t=0 h). […]
# [6] = system: Listeria welshimeri ATCC 35897; assay: as above; settings: ATCC35897, 4 h, read-out: IC50 against Listeria welshimeri ATCC 35897
# Procedure: as §2, §3, §4
# [7] = Heatmap growth inhibition assay, drug-resistant clinical isolates; settings: read-out: IC50 against clinical isolates
# pyruvate oxidoreductases = settings: cited from earlier work
# E. coli 7KOΔtolC (DE3) = assay: 7KOΔtolC(DE3) cell sensitivity assay
# Procedure: Overnight cultures of E. coli 7KOΔtolC (DE3) strains overexpressing either E. coli NfsA (NfsA_Ec), E. coli NfsB (NfsB_Ec) or containing a plasmid only (pET28) control are used to inoculate fresh aliquots of assay media (LB media supplemented with 50 μg·mL^−1 kanamycin and 50 μM IPTG) which are incubated at 30° C., 200 rpm for 2.5 h. 40 μL aliquots of each culture are then added to 40 μL aliquots of assay media containing 2× the desired final concentration of nitazoxanide (i.e., resulting in a final 2-fold dilution series from 20 down to 2.5 μM) or a 0 μM media only control. The plate is then incubated at 30° C., 200 rpm for 4 h. Culture turbidity is monitored by optical density at 600 nm in order to calculate percentage growth relative to the 0 μM control for each strain. Data are the mean of at least two independent experiments±SEM.
# Individual wells of a 96-well microtitre plate containing 100 μL LB supplemented with 50 μg mL^−1 are inoculated in duplicate with 7KOΔtolC(DE3) strains overexpressing E. coli nfsA, E. coli nfsB or a pET28 empty plasmid control. Strains are incubated overnight at 30° C. in a Heidolph titramax platform shaker at 900 rpm. 30 μL of each overnight culture is used to inoculate duplicate cultures of 600 μL LB supplemented with 50 μg mL^−1 kanamycin and 50 μM IPTG in a 96 well deep culture plate (Axygen). Cultures are incubated at 30° C., 1200 rpm for 2.5 h. 40 μL aliquots from each culture are then added to individual wells of a sterile 384 well plate, containing 40 μL LB medium supplemented with 100 μg mL^−1 kanamycin, 50 μM IPTG and serial dilutions of nitazoxanide, including 0 μM controls. Each nitroreductase over-expression strain is tested in duplicate (independent replicates). Culture turbidity is monitored by optical density at 600 nm 4 h post-challenge. Percentage growth values are calculated by comparison of the nitazoxanide-challenged cells with the unchallenged control, after subtracting the initial absorbance values (t=0 h). Microtitre plate absorbance readings are measured using an Eon Biotek Reader (BioTek Instruments Inc.).
# [8] = system: efflux pumps over-expressed in P. aeruginosa; settings: growth inhibition in presence of levofloxacin; cited from earlier work
# AcrAB-TolC = AcrAB-TolC (Escherichia coli, UniProt P02930+P31224); settings: cited from earlier work
# AcrAB-TolC, sequence (P31224 whole entry): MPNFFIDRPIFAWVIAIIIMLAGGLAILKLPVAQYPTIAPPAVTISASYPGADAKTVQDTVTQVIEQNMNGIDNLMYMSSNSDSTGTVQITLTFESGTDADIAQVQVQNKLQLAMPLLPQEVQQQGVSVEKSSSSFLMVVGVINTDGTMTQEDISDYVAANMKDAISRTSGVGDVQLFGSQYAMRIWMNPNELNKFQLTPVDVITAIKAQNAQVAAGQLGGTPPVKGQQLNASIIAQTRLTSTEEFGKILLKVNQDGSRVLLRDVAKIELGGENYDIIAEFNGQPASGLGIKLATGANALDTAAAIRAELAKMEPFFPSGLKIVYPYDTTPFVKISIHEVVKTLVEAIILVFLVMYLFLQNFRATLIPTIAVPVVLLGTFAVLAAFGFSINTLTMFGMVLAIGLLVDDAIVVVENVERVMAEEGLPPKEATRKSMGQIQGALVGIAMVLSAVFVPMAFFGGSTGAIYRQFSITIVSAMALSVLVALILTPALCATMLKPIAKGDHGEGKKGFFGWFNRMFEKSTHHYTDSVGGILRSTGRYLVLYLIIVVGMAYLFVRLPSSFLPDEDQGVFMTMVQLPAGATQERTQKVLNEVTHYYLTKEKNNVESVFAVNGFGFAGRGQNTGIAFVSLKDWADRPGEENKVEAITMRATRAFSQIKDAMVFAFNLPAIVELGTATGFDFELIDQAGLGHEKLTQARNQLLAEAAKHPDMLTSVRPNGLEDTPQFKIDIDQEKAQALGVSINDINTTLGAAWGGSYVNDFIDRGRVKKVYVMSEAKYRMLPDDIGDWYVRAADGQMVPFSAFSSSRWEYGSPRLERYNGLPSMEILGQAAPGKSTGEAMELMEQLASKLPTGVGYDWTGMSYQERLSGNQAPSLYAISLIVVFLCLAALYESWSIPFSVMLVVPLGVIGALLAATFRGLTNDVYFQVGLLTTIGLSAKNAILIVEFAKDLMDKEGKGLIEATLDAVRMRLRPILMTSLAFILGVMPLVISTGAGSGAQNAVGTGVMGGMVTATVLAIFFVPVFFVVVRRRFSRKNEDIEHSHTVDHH
# AcrAB-TolC, sequence (P02930 23-493): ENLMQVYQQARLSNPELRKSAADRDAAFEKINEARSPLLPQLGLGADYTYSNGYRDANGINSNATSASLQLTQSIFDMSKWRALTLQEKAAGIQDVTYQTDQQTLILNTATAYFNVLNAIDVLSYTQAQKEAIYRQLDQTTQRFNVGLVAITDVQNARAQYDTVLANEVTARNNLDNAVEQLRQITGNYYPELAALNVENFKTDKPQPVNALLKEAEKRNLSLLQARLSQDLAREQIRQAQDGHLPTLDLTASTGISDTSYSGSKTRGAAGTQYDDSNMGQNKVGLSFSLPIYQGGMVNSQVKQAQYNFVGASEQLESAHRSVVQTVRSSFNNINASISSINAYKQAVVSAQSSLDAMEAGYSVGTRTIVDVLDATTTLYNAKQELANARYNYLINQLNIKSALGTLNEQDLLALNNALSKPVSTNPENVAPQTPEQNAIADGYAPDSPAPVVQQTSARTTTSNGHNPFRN
# AcrAB-TolC, sequence (P0AE06 25-397, further chain): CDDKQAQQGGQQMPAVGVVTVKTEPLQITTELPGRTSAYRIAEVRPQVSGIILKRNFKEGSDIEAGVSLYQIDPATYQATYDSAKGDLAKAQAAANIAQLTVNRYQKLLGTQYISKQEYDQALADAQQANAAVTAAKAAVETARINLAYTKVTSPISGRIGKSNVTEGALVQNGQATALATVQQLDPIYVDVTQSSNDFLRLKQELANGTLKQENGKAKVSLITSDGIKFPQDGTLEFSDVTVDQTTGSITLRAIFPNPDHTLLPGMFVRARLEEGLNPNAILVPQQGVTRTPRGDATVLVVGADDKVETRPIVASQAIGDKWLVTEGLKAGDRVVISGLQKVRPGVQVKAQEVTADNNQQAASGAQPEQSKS
structure (smiles),measurement,setting,value
Nc1ccc([N+](=O)[O-])cc1Cl [2-chloro-4-nitroaniline],Mutagenicity,Salmonella typhimurium,mutagenic product
same,Toxicity relative to niclosamide,"E. coli 7KOΔtolC; growth inhibition of 7KOΔtolC, FIG. 15",at least three orders of magnitude less toxic than niclosamide
O=C(O)c1cc(Cl)ccc1O [5-chlorosalicyclic acid],Mutagenicity,Salmonella typhimurium,non-mutagenic
"O=C(Nc1ccc([N+](=O)[O-])cc1Cl)c1cc(Cl)ccc1O [Niclosamide, N-(2′-chloro-4′-nitrophenyl)-5-chlorosalicylamide]","IC50, strains over-expressing NfsA, NfsB and AzoR","[1]; 7KOΔtolC, pUCX NfsA, NfsB or AzoR",low micromolar
same,IC50,"[1]; read-out: IC50, MdaB over-expressing strain",83 nM
same,IC50,"[1]; read-out: IC50, NemA over-expressing strain",300 nM
same,IC50,"[1]; read-out: IC50, empty plasmid control strain",47 nM
same,Toxicity to 6KO strain,E. coli 6KO,no longer found to be toxic
same,MIC,[2],0.5 to 1 µg/mL
same,Activity against non-replicating M. tuberculosis,[2]; grown in low oxygen conditions,active
same,Effect on membrane potential,M. tuberculosis,uncoupled the membrane potential
same,Anti-quorum sensing activity,[3],highest anti-quorum sensing activity
same,Sensitivity of MRSA (concentration level),[4],nanomolar concentrations
same,IC50,"E. coli 7KOΔtolC; Escherichia coli, 4 h, read-out: IC50 for 7KOΔtolC",120 nM
same,IC50,"E. coli 7KO; Escherichia coli, 7KO, 4 h, read-out: IC50 for 7KO",> 5000 nM
same,IC50,[5],132 nM
same,IC50,[6],284 nM
same,IC50,[7],> 20000 nM
"CC(=O)Oc1ccccc1C(=O)Nc1ncc([N+](=O)[O-])s1 [Nitazoxanide, 2-acetyloxy-N-(5-nitro 2-thiazolyl)benzamide]",Effect on membrane potential,M. tuberculosis,disrupts membrane potential and pH homeostasis
same,Effect on membrane potential,M. tuberculosis; listed as nitazoxanide,uncoupled the membrane potential
same,Inhibition of pyruvate oxidoreductases,pyruvate oxidoreductases,inhibits pyruvate oxidoreductases
same,Toxicity relative to niclosamide (less toxic),E. coli 7KOΔtolC (DE3); 7KOΔtolC (DE3) cells,approximately 2 orders of magnitude
same,Effect of NfsA and NfsB over-expression on toxicity,"E. coli 7KOΔtolC (DE3); 7KOΔtolC (DE3), pET28 NfsA or NfsB",able to defend against nitazoxanide toxicity
same,IC50,"E. coli 7KOΔtolC (DE3); Escherichia coli, 4 h, read-out: IC50 in 7KOΔtolC (DE3) cells",5200 nM
same,IC50,[5],2900 nM
same,IC50,[6],8780 nM
"N=C(N)NCCC[C@H](NC(=O)[C@@H](N)Cc1ccccc1)C(=O)Nc1ccc2ccccc2c1 [PAβN, phenylalanine-arginine β-napthylamide] (H-Phe-Arg-βNA)",Activity against P. aeruginosa efflux pumps,[8],active against each of the efflux pumps
same,Activity against AcrAB-TolC,AcrAB-TolC,active against AcrAB-TolC
same,Sensitivity of MRSA (concentration level),[4],micromolar levels
same,Effect of PAβN on niclosamide sensitivity,"E. coli 7KO; 25 μM or 50 μM PAβN, niclosamide 10 μM down to 156 nM",promote niclosamide sensitivity in the 7KO strain in a dose-dependent manner
